Results on 16 compounds are retold here after publication PMC8955265, “Systematic Discovery of FBXW7-Binding Phosphodegrons Highlights Mitogen-Activated Protein Kinases as Important Regulators of Intracellular Protein Levels” (International Journal of Molecular Sciences, 2022).

Where a SMILES comes first, the peptide text is derived from it. [ ]: non-standard residue; d: D form. pT = C[C@@H](OP(=O)(O)O)[C@H](N)C(=O)O; pS = N[C@@H](COP(=O)(O)O)C(=O)O

In general, Kd refers to a measure of binding affinity in units of concentration. High values mean lower affinity, low ones higher affinity.

The target of one assay is T1, Skp1-FBXW7 complex (Homo sapiens, UniProt P63208+Q969H0).
T1 construct: human FBXW7 (263-707) with an N-terminal hexa-histidine (His6) tag; His6 (N, cleaved yes); made in house; host or cells: E. coli Rosetta (DE3)
T1 sequence (Q969H0 263-707): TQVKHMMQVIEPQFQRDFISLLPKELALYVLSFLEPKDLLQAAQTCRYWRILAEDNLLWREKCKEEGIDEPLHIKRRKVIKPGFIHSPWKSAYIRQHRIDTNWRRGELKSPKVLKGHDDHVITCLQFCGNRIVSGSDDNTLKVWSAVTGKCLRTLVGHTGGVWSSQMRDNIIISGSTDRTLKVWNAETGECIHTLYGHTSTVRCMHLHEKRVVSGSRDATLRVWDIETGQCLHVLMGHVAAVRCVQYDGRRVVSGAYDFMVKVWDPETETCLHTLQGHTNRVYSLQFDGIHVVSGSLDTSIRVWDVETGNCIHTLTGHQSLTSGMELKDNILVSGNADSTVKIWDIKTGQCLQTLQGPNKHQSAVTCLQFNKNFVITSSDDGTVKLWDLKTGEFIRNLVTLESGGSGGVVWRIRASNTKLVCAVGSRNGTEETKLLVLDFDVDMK
T1 sequence (P63208 1-149 partner limits assumed): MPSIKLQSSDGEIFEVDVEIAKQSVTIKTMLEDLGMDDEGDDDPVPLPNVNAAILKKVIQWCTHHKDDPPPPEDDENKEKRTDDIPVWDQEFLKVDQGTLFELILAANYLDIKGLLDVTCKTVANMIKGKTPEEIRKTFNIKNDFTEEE
Kind of assay: Fluorescence polarization competitive protein-peptide binding assay. The conditions noted are these: for binding affinity to purified FBXW7 in vitro: FP based quantitative in vitro binding assay, result in words; for Kd: FP competition of unlabeled peptide against 50 nM CF-labeled CCNE peptide at ~60-80% complex formation, 20 mM Tris pH 8.0, 100 mM NaCl, 0.05% Brij35P, 2 mM TCEP, value with error. As for the experimental part: Truncated Skp1 (1-149) and human FBXW7 (263-707) with an N-terminal hexa-histidine (His6) tag were cloned into a bicistronic plasmid (pMG950) and were co-expressed in E. coli Rosetta (DE3) strain. The Skp1-FBXW7 complex was purified using affinity, anion exchange, and gel filtration chromatography. The DNA expression plasmid was transformed into E. coli Rosetta (DE3) strain and grown in LB until OD600 = 0.5, protein expression was induced with 100 µM isopropyl-β-d-1-thigalatopyaranoside (IPTG) overnight at 18 °C. The cell pellet was lysed, and the recombinant protein was purified using Ni-NTA agarose beads. Before further purification the His6-tag was removed by using the TEV protease and then the protein complex was further purified using anion exchange chromatography twice, first with a Resource Q and then with a Mono Q column (pH = 8). Finally, the complex was subjected to size-exclusion chromatography in 20 mM Tris, pH = 8, 150 mM NaCl, and 1 mM DTT using a Superdex200 10/300 column (GE Healthcare, Chicago, IL, USA). The eluted fractions were pooled together and were supplemented with 10% glycerol and 2 mM TCEP before concentration and storage.
Fluoresce polarization (FP) based protein–peptide binding affinity measurements were carried out using 50 nM carboxyfluorescein (CF) labeled CCNE peptide (CF-PSGLLpTPPQpSGKKQ) and data were fit to a direct or a competitive binding equation using OriginPro 2018 as described earlier. For the direct measurements the concentration of Skp1-FBXW7 complex was increased in a titration experiment and then the binding affinity (Ki) of the unlabeled peptide was determined by titrating the Skp1-FBXW7: labelled peptide complex sample, at a concentration corresponding to ~60–80% complex formation, with increasing amounts of unlabeled peptide. All the FP measurements were performed in 20 mM Tris (pH 8.0), 100 mM NaCl, 0.05% Brij35P, and 2 mM TCEP using a Cytation^TM 3 (BioTek Instruments) plate reader (384-well plates in 20 µL binding reaction volume). Peptides were chemically synthesized and were ordered from GenScript.

Another assay concerns FBXW7. Briefly: Ratiometric EGFP/DsRed protein degradation assay with degron probes. The format is cell-based, human. The conditions noted are these: putative degron motif in EGFP-fused probe with AAKG2 MAPK docking motif; HEK293T, 48 h after transfection, EGFP/DsRed ratio with and without FBXW7 plasmid; search cycles 1-4. The source says:
In order to be able to test putative phosphodegron motifs, a ratiometric protein level monitoring method was adapted to monitor MAPK controlled FBXW7 mediated protein degradation. Briefly, intact DsRed and an EGFP-chimera were expressed in HEK293T cells in equal amounts from an expression plasmid, giving an EGFP/DsRed fluorescence ratio close to one under non-degrading conditions. EGFP was fused to a probe comprised of a putative degron sequence and a known MAPK binding docking motif. EGFP signal is expected to diminish faster than DsRed in cells with more FBXW7 if the probe responded to degradation.
We started out from an intentionally general consensus motif of FBXW7 degrons, inspired by the liberal [TS]P..[TS]P pattern defined for yeast Cdc4 substrates, and scanned the human disordered part of the proteome using SliMSearch4 (the disorder score cut-off was 0.4 and flank length was 5). In all, 22 motifs from this list were subjectively chosen and tested in the ratiometric degradation assay giving only 5 positives (see Supplementary Table S1). Based on the results of this first round, by taking information both from the identified positives and negatives, the consensus motif definition was narrowed to requiring a proline at P + 2, but motifs were allowed to have a phospho-mimicking residue (D or E) at P + 4 because it had been formerly reported that this second phosphorylatable residue may be replaced by aspartate or glutamate. […] In the third round, hydrophobic amino acids were more strictly required at positions −1/−2 and P − 1/2/3 positions were further narrowed and P + 4 position was relaxed based on the identified negatives, which gave a higher hit rate (4 out of 6). This third round gave functional motifs at a good rate, but the used motif definition was very restrictive compared to other known motifs. Finally, in the fourth round, we gave up using an optimal consensus and established the positional relaxation model. […] Hits on this final, most predictive list are presented in Supplementary Table S2. All entries were filtered for motif locations by UniProt annotations, discarding all enzyme-inaccessible (e.g., extracellular) instances. Motifs that had any overlapping PFAM domain indicated were manually assessed using the AlphaFold EBI website. Out of these, only motifs that were highly accessible and located outside of confidently predicted folded domains were kept. We also added kinase consensus compatibility to every motif and the number of experiments where phosphorylation could be detected from PhosphoSitePlus.
The chimera degron module was ordered from IDT as gene Block (gBlock). It consisted of a coiled coil dimerization motif (GCN4: EELLSKNYHLENEVARLKK) to increase sensitivity by allowing multivalent binding, a MAPK binding docking motif (AAKG2: KKNASQKRRSLRVHIPDL), and the CycECO degron motif. The motifs were separated by Gly-Ser-Asn linkers and the gBlock was designed so that the motifs could be easily changed by using unique sets of restriction endonucleases. The gBlock was sub-cloned into the Gateway pENTR4 entry plasmid (Thermo Fisher, Waltham, MA, USA) using restriction enzymes (SalI and NotI). The pENTR4-chimera and the destination plasmid (MSCV-CMV-DsRed-IRES-EGFP-DEST from Addgene; 41941), [28]) were subjected to gateway cloning using LR clonase II enzyme (Invitrogen) to obtain the first DsRed-EGFP-chimera DNA construct containing the cycECO degron. Oligonucleotides corresponding to different degron sequences and docking motifs were ligated into the DsRed-EGFP-chimera DNA construct. The list of all the oligonucleotides used for cloning is provided in Supplementary Table S3. pcDNA3-FLAG-FBXW7α was a kind gift from Michael Pagano (New York University). The FBXW7 arginine mutant (Arg mutant: R465C; R479Q; R505L) was created using two-step PCR and cloned into the pcDNA3-FLAG plasmid. […]

For `CC[C@H](C)[C@H](NC(=O)[C@@H]1CCCN1C(=O)[C@@H]1CCCN1C(=O)[C@@H](NC(=O)[C@@H](NC(=O)[C@@H]1CCCN1C(=O)[C@@H]1CCCN1C(=O)[C@@H](NC(=O)[C@H](CC(C)C)NC(=O)[C@H](CO)NC(=O)CNC(=O)[C@H](CO)NC(=O)[C@H](CO)NC(=O)[C@@H](N)Cc1c[nH]cn1)[C@@H](C)OP(=O)(O)O)C(C)C)[C@@H](C)OP(=O)(O)O)C(=O)N[C@H](C(=O)O)[C@@H](C)O` [JAZF1] (H-HSSGSL[pT]PPV[pT]PPIT-OH), on Skp1-FBXW7 complex, the “binding affinity to purified FBXW7 in vitro” value (“binding affinity” for short) is given as “low nanomolar” and the Kd came to 29.7 ± 3.2 nM. In the case of `CC(C)C[C@H](NC(=O)[C@@H](NC(=O)[C@H](CO)NC(=O)[C@H](CC(N)=O)NC(=O)[C@@H](N)CO)C(C)C)C(=O)N[C@@H](CC(N)=O)C(=O)N[C@H](C(=O)N1CCC[C@H]1C(=O)N1CCC[C@H]1C(=O)N[C@H](C(=O)N[C@H](C(=O)N1CCC[C@H]1C(=O)N[C@@H](CCC(=O)O)C(=O)N[C@@H](CO)C(=O)N1CCC[C@H]1C(=O)O)[C@@H](C)OP(=O)(O)O)[C@@H](C)O)[C@@H](C)OP(=O)(O)O` [ARID4B] (H-SNSVLN[pT]PPT[pT]PESP-OH), on Skp1-FBXW7 complex, the “binding affinity” value was “low nanomolar” and binding was put at a Kd of 17.7 ± 0.6 nM. As for “LGPPPGLLTPPVATELSQN [CCAR2, synthetic peptide of the CCAR2 motif, P + 4 nonphospho class]”, the Outcome result with FBXW7 is on record as “Positive (tested positive, where +FBXW7/control protein level ratio was lower than 1)”. The “binding affinity” value on Skp1-FBXW7 complex is reported as “low micromolar”.

On to `CSCC[C@H](NC(=O)CNC(=O)[C@H](Cc1c[nH]cn1)NC(=O)[C@@H](N)[C@@H](C)O)C(=O)N[C@@H](CCSC)C(=O)N[C@@H](CC(C)C)C(=O)N[C@H](C(=O)N1CCC[C@H]1C(=O)N1CCC[C@H]1C(=O)N[C@@H](CO)C(=O)N[C@@H](COP(=O)(O)O)C(=O)N1CCC[C@H]1C(=O)N[C@@H](CC(C)C)C(=O)N[C@@H](CCC(=O)O)C(=O)N[C@@H](CC(C)C)C(=O)O)[C@@H](C)OP(=O)(O)O` [KLF4] (H-THGMML[pT]PPS[pS]PLEL-OH), for which, at Skp1-FBXW7 complex, the “binding affinity” value is reported as “low nanomolar” and the dissociation constant Kd was found to be 11 ± 1 nM. The like results for `CC(C)C[C@H](NC(=O)[C@@H]1CCCN1C(=O)[C@H](CCCCN)NC(=O)[C@H](Cc1ccccc1)NC(=O)CNC(=O)[C@@H](N)CO)C(=O)N[C@H](C(=O)N1CCC[C@H]1C(=O)N1CCC[C@H]1C(=O)N[C@H](C(=O)N[C@H](C(=O)N1CCC[C@H]1C(=O)N[C@@H](CC(C)C)C(=O)N[C@@H](CO)C(=O)N1CCC[C@H]1C(=O)O)[C@@H](C)OP(=O)(O)O)[C@@H](C)O)[C@@H](C)OP(=O)(O)O` [ETV5] (H-SGFKPL[pT]PPT[pT]PLSP-OH) were, in that order, “low nanomolar” and 16.1 ± 2.1 nM. As for “VAVSPTPPVSPEVRST [CEP164, putative FBXW7 degron motif tested as EGFP-fused degradation probe]”, the Outcome entry in the assay on FBXW7 is on record as “Negative”.

As for “GSDGASPPASPSIIPR [MAP3K10, putative FBXW7 degron motif tested as EGFP-fused degradation probe]”, the Outcome entry in the assay with FBXW7 was “Negative”. The same measure, in the same setting: the same measure for “PRPPRPPSPPPEPETTD [SETD1B, putative FBXW7 degron motif tested as EGFP-fused degradation probe]”: “Negative”. For the compound “AVVRTPPKSPSSAK [Tau, putative FBXW7 degron motif tested as EGFP-fused degradation probe]”, the Outcome result with FBXW7 was “Negative”.

With `CSCC[C@H](NC(=O)[C@@H]1CCCN1C(=O)[C@@H](NC(=O)[C@H](CCC(=O)O)NC(=O)[C@@H]1CCCN1C(=O)[C@@H]1CCCN1C(=O)[C@@H](NC(=O)[C@H](Cc1ccc(O)cc1)NC(=O)[C@H](CC(C)C)NC(=O)[C@H](CC(N)=O)NC(=O)[C@H](CC(C)C)NC(=O)[C@H](CCCCN)NC(=O)[C@@H](N)Cc1ccccc1)[C@@H](C)OP(=O)(O)O)[C@@H](C)OP(=O)(O)O)C(=O)N[C@@H](CCC(=O)O)C(=O)N1CCC[C@H]1C(=O)O` [KAT6B] (H-FKLNLY[pT]PPE[pT]PMEP-OH), at Skp1-FBXW7 complex, the “binding affinity” value was “low nanomolar” and binding was put at a Kd of 2.8 ± 0.2 nM. As to “KQFLISPPASPPVGWKQV [RCAN1, putative FBXW7 degron motif tested as EGFP-fused degradation probe]”, the Outcome result with FBXW7 is reported as “Negative”. As for “SPGDSPPGTPPASPPSSAWQ [TBC1D4, putative FBXW7 degron motif tested as EGFP-fused degradation probe]”, the Outcome entry in the assay on FBXW7 was “Negative”.

As to “LGPVHPTPPPSSPQEP [KMT2D-a, putative FBXW7 degron motif tested as EGFP-fused degradation probe]”, the Outcome result with FBXW7 is “Negative”.

With “SDLDKTPPPSPPPEED [CHD7, putative FBXW7 degron motif tested as EGFP-fused degradation probe]”, in the assay on FBXW7, the Outcome entry is recorded as “Negative”. With “RPALPATPPATPPAASP [CDT1, putative FBXW7 degron motif tested as EGFP-fused degradation probe]”, the Outcome result with FBXW7 is “Positive (tested positive, where +FBXW7/control protein level ratio was lower than 1)”. Consider `CSCC[C@H](NC(=O)[C@@H]1CCCN1C(=O)[C@@H]1CCCN1C(=O)[C@@H](NC(=O)[C@@H]1CCCN1C(=O)[C@H](CC(N)=O)NC(=O)CNC(=O)[C@@H]1CCCN1C(=O)[C@@H](NC(=O)[C@@H]1CCCN1)C(C)C)[C@@H](C)OP(=O)(O)O)C(=O)N[C@H](C(=O)N1CCC[C@H]1C(=O)NCC(=O)N[C@@H](CO)C(=O)N[C@@H](CO)C(=O)O)[C@@H](C)OP(=O)(O)O` [ZMIZ1] (H-PVPGNP[pT]PPM[pT]PGSS-OH), for which, at Skp1-FBXW7 complex, the “binding affinity” value was “low nanomolar” and binding was characterised by a dissociation constant (Kd) of 52.3 ± 2.6 nM.
